# Test results: ChEMBL document CHEMBL1201862, “PubChem BioAssay data set” (2004)
# Activity calls are given as the source filed them.
# Key:
# [1] = target: Protein Wnt-3a (Mus musculus, UniProt P27467); test: antagonism of Wnt3a pathway luciferase reporter – Wnt-LIGHT cells, luminescence, selectivity assay for Gli-SUFU antagonist project, dose response (AID 651570); format: functional; settings: read-out: IC50_Mean;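 note: Wnt-LIGHT reporter cells stimulated with conditioned medium from Wnt3a-producing cells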
# Sequence of Protein Wnt-3a (P27467 whole entry): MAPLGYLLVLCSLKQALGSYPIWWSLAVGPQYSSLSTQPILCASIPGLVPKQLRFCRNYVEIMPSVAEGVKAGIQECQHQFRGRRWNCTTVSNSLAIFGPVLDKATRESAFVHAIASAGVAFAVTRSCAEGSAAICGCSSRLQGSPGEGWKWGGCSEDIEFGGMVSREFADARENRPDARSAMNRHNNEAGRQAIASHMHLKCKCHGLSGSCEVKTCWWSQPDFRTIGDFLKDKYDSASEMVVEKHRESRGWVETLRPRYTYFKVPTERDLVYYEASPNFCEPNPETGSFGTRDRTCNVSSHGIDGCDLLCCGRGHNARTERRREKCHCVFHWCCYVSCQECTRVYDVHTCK
# [2] = target: T1, ATP-dependent translocase ABCB1 (Homo sapiens, UniProt P08183); test: inhibition of BCRP-mediated JC-1 efflux – Ig-MXP3 cells, flow cytometry, set 2, dose response (AID 504566); format: functional; settings: read-out: EC50_MICROM_;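 note: flow cytometry median green fluorescence of retained JC-1 dye; potency of efflux pump inhibition measured as rising substrate retention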
# T1 sequence (P08183 whole entry): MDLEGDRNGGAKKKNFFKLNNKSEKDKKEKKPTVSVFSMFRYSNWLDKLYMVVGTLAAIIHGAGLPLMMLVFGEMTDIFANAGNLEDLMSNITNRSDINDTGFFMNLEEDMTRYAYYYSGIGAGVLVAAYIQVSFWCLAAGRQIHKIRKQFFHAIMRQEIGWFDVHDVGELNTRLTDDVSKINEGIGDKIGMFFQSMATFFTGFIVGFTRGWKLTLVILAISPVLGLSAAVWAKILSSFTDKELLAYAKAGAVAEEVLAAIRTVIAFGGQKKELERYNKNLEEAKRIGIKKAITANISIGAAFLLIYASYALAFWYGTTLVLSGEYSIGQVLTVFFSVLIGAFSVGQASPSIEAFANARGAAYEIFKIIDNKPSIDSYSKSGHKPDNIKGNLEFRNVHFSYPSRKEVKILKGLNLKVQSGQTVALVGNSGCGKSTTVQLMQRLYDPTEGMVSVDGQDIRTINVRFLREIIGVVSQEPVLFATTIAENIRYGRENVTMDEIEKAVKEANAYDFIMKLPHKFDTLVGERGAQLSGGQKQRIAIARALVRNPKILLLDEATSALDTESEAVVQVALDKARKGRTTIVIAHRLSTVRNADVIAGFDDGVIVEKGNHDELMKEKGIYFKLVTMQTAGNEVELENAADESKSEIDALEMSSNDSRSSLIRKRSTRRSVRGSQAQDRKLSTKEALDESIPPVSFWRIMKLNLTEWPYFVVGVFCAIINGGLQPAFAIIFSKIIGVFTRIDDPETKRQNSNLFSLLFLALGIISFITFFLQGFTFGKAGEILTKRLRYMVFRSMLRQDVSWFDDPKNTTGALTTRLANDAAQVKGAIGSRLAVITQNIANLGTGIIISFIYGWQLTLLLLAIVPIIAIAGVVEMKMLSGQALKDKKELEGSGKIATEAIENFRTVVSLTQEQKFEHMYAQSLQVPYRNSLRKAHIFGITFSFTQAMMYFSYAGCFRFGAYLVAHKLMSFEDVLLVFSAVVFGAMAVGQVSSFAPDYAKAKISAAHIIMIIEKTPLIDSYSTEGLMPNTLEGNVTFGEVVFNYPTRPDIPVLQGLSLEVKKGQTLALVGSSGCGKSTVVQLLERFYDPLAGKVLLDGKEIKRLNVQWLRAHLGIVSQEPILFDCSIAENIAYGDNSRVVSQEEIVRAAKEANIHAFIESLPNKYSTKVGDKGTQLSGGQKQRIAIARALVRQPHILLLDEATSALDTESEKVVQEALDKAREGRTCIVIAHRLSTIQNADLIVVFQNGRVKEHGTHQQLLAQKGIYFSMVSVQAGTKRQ
# [3] = target: T1, ATP-dependent translocase ABCB1; test: P-gp JC-1 efflux blockade concentration-response – Jurkat-DNR cells, flow cytometry, set 2, dose response (AID 504569); format: functional; settings: read-out: EC50_MICROM_;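 note: potency of pump inhibitors that raise cellular JC-1 green fluorescence up to the nicardipine level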
# [4] = target: T2, Protein disulfide-isomerase (Homo sapiens, UniProt P07237); test: inhibition of PDI-driven insulin aggregation – biochemical, turbidity, absorbance, cherry-picked samples, dose response (AID 602350); format: functional
# T2 sequence (P07237 whole entry): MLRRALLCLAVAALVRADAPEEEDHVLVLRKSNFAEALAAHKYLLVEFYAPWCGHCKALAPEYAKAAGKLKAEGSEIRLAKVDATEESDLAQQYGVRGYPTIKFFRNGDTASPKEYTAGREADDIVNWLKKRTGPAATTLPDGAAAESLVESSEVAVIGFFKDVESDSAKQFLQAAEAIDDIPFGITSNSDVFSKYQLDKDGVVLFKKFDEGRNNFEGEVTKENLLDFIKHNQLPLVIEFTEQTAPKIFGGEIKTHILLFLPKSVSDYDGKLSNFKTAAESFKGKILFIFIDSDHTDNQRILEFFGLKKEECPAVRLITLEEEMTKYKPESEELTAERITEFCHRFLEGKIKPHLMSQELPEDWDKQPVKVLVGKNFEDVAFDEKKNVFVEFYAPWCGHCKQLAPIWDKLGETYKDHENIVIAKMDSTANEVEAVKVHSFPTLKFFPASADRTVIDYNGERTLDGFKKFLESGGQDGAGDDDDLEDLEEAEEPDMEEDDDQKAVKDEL
# [5] = target: T2, Protein disulfide-isomerase; test: inhibition of PDI-mediated insulin reduction – biochemical, turbidity, absorbance, cherry-picked samples, set 2, dose response (AID 624274); format: functional
# [6] = NIH-3T3 fibroblast cytotoxicity, dose response, cytotoxicity control, cell-based, fluorescence, Alamar Blue, secondary assay (AID 2327); format: functional;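 note: NIH-3T3 mouse fibroblasts cultured with fluconazole at 8 µg/mL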
# [7] = target: T3, RNA-binding protein pos-1 (Caenorhabditis elegans, UniProt G5EF15); test: disruptors of C. elegans POS-1 RNA interaction – biochemical, fluorescence polarization, dose response (AID 1964);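 note: purified POS-1 fused to maltose binding protein made in E. coli; potency of compounds blocking POS-1 binding to fluorescent RNA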
# T3 sequence (G5EF15 whole entry): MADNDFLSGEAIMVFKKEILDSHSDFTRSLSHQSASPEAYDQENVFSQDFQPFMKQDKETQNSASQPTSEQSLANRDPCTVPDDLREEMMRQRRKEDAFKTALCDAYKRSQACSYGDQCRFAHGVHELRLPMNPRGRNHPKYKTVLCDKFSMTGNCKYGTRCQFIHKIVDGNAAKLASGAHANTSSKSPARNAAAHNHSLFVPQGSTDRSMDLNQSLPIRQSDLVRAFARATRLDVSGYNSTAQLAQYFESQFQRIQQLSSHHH
# [8] = system: Streptococcus sp. 'group A'; test: Streptococcus pyogenes SK(-)GAS viability under kanamycin – luminescence, BacTiterGlo, confirmation, counter-screen for streptokinase expression inhibitor project, dose response (AID 1900); format: functional, organism-based
# [9] = cells; format: functional, cell-based
# [10] = fluconazole-exposed Candida albicans growth modulators – fluorescence, retest, confirmation (AID 2467); format: functional, cell-based
# [11] = Trypanosoma cruzi growth suppression in host cells – NIH3T3 host cells, beta-gal luminescence, confirmation (AID 2044); format: functional, cell-based;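 note: intracellular parasites grown in NIH/3T3 mouse fibroblasts as host cells; luminescent beta-galactosidase reporter signal from transgenic T. cruzi replicating inside host cells; inhibitors lower the luminescence signal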
# [12] = cells; format: functional, cell-based; remark: listed apart in the source
# [13] = NIH3T3 cell viability loss – ATP luminescence, mouse fibroblasts, counter-screen, dose response (AID 2010); format: functional, cell-based;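 note: cells exposed to compound for about 90 hours before reading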
# [14] = system: Streptococcus; test: GAS UMAA2166 growth inhibition – luminescence, BacTiterGlo, counter-screen for streptokinase expression inhibitor project, dose response (AID 1915); format: functional, organism-based;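 note: potency for reduction of bacterial viability or growth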
# [15] = HEK-293T viability loss after treatment – luminescence, T-cell screen hits, cytotoxicity control for TCR NF-kB inhibitor project, dose response (AID 489026); format: functional, cell-based;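 note: cells exposed to compound about 14 hours before the viability readout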
# [16] = target: Heat shock protein HSP 90-alpha (Homo sapiens, UniProt P07900); format: functional, organism-based
# [17] = target: T4, Insulin-degrading enzyme (Homo sapiens, UniProt P14735); test: recombinant IDE activation, cell-free – biochemical, fluorescence polarization, counter-screen for IDE activator project, dose response (AID 588681)
# T4 sequence (P14735 whole entry): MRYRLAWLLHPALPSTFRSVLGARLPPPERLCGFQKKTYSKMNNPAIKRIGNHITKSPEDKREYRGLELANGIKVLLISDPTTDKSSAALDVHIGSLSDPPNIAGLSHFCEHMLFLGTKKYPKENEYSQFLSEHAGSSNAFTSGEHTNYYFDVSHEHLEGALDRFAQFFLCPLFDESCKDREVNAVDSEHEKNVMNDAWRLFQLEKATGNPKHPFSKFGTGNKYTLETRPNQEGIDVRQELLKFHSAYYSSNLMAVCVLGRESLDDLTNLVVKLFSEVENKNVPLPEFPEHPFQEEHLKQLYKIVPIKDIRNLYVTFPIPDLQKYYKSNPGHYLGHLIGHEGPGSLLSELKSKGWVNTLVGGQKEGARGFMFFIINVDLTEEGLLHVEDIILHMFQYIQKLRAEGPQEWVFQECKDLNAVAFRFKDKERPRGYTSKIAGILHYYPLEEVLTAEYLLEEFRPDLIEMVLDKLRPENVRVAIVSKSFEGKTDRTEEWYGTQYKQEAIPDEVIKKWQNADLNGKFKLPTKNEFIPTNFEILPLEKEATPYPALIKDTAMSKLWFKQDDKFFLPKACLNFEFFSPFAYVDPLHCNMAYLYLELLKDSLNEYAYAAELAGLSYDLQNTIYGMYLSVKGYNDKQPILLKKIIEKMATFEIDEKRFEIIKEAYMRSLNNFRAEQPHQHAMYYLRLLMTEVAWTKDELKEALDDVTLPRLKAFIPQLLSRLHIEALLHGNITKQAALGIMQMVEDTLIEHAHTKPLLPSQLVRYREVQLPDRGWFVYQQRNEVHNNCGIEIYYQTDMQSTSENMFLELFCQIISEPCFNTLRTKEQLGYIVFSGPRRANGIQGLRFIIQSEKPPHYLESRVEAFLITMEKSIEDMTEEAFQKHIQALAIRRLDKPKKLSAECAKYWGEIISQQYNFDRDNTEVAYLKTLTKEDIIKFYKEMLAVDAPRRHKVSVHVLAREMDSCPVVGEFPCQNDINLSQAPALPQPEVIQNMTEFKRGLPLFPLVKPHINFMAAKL
# [18] = target: T4, Insulin-degrading enzyme; test: cellular IDE activation of Abeta substrate cleavage – fluorescence polarization, HEK cells, dose response (AID 588439); format: functional, cell-based
# [19] = system: HEK293; test: membrane integrity loss in HEK cells – cell-based, fluorescence, cytotoxicity control for IDE activator project, dose response (AID 588440); format: functional; settings: Homo sapiens;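 note: cytotoxicity by LDH release measuring loss of membrane integrity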
# [20] = system: HEK293; test: optical interference in Abeta FP readout, dose response, artefact control for IDE activator project, biochemical, fluorescence polarization (AID 588442); format: functional, cell-based; settings: Homo sapiens
# [21] = target: 26S proteasome non-ATPase regulatory subunit 14 (Homo sapiens, UniProt O00487); test: inhibition of proteasome subunit RPN11 – biochemical, fluorescence polarization, uHTS hits, confirmation (AID 602368); format: functional
# Sequence of 26S proteasome non-ATPase regulatory subunit 14 (O00487 whole entry): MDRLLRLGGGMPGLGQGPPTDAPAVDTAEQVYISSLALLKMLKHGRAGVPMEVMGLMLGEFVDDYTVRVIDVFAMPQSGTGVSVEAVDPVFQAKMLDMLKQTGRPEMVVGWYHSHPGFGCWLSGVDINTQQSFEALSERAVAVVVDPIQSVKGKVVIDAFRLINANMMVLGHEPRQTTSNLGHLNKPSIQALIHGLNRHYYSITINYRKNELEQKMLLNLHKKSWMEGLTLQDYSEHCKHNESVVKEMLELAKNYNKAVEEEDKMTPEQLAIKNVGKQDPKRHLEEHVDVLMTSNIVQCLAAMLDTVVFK
# [22] = target: 72 kDa type IV collagenase (Homo sapiens, UniProt P08253); test: Dose Response validation of uHTS RPN11 inhibitor hits using a MMP-2 Fluorescence assay.; format: functional
# Sequence of 72 kDa type IV collagenase (P08253 whole entry): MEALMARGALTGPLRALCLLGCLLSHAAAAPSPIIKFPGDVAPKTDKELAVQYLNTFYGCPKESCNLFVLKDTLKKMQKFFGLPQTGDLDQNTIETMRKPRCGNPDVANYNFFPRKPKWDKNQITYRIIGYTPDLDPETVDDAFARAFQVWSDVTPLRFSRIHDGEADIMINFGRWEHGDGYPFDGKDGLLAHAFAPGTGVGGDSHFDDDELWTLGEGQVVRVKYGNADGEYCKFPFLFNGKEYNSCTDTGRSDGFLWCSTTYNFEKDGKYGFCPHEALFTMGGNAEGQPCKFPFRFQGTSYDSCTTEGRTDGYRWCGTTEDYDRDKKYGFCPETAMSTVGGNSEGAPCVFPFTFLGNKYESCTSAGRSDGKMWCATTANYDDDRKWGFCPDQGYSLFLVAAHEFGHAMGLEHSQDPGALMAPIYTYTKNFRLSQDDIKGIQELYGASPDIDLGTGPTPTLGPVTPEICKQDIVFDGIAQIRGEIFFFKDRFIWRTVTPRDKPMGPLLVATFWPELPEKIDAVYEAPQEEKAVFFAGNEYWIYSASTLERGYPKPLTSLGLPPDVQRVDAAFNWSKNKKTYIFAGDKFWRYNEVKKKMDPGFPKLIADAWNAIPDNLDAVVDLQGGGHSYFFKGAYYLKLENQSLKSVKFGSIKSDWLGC
# [23] = target: Prothrombin (Bos taurus, UniProt P00735); test: thrombin protease inhibitors – biochemical, fluorescence polarization, uHTS hits, dose response (AID 602369); format: functional
# [24] = target: T5, Low molecular weight phosphotyrosine protein phosphatase (Homo sapiens, UniProt P24666); format: functional; settings: read-out: IC50_Mean
# T5 sequence (P24666 whole entry): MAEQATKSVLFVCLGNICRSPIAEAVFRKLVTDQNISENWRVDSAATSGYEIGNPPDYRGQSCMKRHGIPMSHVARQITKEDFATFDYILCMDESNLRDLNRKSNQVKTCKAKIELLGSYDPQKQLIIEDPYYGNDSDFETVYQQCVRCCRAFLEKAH
# [25] = target: T5, Low molecular weight phosphotyrosine protein phosphatase; format: functional; settings: read-out: IC50_Mean; remark: listed apart in the source
# [26] = target: Cytochrome P450 2C19 (Homo sapiens, UniProt P33261); test: Cytochrome panel assay with activity outcomes. Panel member name: p450-cyp2c19 Compounds with AC50 equal or less than 10 uM are considered active; format: functional; settings: read-out: AC50
# Sequence of Cytochrome P450 2C19 (P33261 whole entry): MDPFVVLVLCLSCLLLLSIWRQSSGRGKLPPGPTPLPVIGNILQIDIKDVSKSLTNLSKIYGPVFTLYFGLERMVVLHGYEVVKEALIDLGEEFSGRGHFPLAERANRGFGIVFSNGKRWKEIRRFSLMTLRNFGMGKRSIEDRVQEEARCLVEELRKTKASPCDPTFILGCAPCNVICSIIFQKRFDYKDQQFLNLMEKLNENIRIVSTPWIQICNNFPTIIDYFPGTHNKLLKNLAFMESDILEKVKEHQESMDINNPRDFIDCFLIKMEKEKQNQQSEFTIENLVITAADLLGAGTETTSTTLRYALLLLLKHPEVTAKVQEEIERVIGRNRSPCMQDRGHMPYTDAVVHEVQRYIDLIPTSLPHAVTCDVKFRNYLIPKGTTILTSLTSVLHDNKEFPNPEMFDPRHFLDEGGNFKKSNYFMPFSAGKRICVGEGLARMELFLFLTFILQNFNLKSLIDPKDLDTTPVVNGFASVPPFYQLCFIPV
# [27] = system: HeLa; test: ATP-based viability loss in HeLa cells – cell-based, CellTiter-Glo luminescence, cherry-pick samples, cytotoxicity control for MITF activator project, dose response (AID 540259); format: functional; settings: Homo sapiens
# [28] = target: T6, Interleukin-8 (Homo sapiens, UniProt P10145); test: Dose Response confirmation of uHTS small molecule hits for cystic fibrosis induced NFkb Inhibitors in a TNFa-induced IL8 counterscreen.; format: functional; settings: read-out: IC50_Mean
# T6 sequence (P10145 whole entry): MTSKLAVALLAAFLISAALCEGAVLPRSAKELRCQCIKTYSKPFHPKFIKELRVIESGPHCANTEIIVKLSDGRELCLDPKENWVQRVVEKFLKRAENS
# [29] = target: T6, Interleukin-8; test: Dose Response confirmation of uHTS small molecule hits for cystic fibrosis induced NFkb Inhibitors in a PAF-induced IL8 counterscreen.; format: functional; settings: read-out: IC50_Mean
# [30] = target: Aryl hydrocarbon receptor (Homo sapiens, UniProt P35869); settings: Potency;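 note: confirmatory quantitative high-throughput screen measuring activation of the AhR signaling pathway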
# [31] = microbe, parasite or virus in culture; format: functional; settings: Mycobacterium tuberculosis
# [32] = target: T7, Ubiquitin-conjugating enzyme E2 N (Homo sapiens, UniProt P61088); format: functional;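 note: Dose-response confirmation in a TR-FRET assay detecting UBC13-driven polyubiquitin chain formation, inhibition measured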
# T7 sequence (P61088 whole entry): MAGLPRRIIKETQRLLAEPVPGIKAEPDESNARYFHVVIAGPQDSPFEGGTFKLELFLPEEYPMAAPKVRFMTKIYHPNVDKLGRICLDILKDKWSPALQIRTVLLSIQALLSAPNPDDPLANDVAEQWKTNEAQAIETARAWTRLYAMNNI
# [33] = target: FAD-linked sulfhydryl oxidase ALR (Homo sapiens, UniProt P55789); test: ALR-catalysed DTT oxidation blockers – biochemical, H2O2 detection, luminescence, cherry-pick, dose response (AID 493248)
# Sequence of FAD-linked sulfhydryl oxidase ALR (P55789 whole entry, the tested form may be a part): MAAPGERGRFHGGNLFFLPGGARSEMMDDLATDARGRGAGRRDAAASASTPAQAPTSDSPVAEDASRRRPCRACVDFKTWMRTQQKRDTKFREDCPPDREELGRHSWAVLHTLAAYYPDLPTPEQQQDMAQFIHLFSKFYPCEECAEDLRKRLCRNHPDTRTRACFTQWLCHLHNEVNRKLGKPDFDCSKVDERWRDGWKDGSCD
# [34] = target: Hepatocyte nuclear factor 4-alpha (Homo sapiens, UniProt P41235); format: functional, cell-based;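 note: biochemical luminescence-based dose-response counterscreen measuring inhibition of HNF4 dimerization, run alongside a screen for blockers of ABHD5–perilipin-5 interaction; split luciferase complementation of HNF4 fusion proteins in cell lysate measuring dimerization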
# Sequence of Hepatocyte nuclear factor 4-alpha (P41235 whole entry, the tested form may be a part): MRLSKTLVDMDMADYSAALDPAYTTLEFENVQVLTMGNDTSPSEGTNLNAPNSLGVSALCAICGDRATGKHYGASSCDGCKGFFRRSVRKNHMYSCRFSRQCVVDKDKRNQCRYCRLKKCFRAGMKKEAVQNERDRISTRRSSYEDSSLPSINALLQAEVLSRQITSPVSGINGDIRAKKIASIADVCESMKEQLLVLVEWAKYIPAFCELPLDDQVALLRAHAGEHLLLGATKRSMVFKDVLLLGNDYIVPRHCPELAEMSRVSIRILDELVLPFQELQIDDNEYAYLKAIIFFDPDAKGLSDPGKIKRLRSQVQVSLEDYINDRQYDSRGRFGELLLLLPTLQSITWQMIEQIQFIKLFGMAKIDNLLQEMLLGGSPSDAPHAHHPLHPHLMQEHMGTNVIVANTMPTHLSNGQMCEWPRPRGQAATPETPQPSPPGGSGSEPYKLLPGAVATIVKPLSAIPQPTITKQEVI
# [35] = target: T8, DNA repair protein RAD52 homolog (Homo sapiens, UniProt P43351); format: functional, biochemical
# T8 sequence (P43351 whole entry): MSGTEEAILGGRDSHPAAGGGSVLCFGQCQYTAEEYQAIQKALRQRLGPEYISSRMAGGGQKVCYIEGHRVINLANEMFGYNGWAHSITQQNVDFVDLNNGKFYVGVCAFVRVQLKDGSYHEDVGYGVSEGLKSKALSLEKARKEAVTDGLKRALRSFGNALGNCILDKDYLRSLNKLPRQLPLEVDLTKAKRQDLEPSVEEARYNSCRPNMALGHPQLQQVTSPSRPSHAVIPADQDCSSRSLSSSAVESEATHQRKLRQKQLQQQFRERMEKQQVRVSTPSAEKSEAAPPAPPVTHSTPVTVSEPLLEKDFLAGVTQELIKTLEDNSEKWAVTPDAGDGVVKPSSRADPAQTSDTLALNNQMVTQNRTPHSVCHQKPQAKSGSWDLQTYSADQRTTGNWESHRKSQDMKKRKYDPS
# [36] = target: Diacylglycerol lipase-beta (Mus musculus, UniProt Q91WC9); test: Late stage assay provider results from the probe development effort to identify inhibitors of diacylglycerol lipase, beta (DAGLb): fluorescence-based dose-response biochemical gel-based competitive Activity-Based Protein Profiling (ABPP) inhibition of DAGLb in vitro.; format: functional
# Sequence of Diacylglycerol lipase-beta (Q91WC9 whole entry): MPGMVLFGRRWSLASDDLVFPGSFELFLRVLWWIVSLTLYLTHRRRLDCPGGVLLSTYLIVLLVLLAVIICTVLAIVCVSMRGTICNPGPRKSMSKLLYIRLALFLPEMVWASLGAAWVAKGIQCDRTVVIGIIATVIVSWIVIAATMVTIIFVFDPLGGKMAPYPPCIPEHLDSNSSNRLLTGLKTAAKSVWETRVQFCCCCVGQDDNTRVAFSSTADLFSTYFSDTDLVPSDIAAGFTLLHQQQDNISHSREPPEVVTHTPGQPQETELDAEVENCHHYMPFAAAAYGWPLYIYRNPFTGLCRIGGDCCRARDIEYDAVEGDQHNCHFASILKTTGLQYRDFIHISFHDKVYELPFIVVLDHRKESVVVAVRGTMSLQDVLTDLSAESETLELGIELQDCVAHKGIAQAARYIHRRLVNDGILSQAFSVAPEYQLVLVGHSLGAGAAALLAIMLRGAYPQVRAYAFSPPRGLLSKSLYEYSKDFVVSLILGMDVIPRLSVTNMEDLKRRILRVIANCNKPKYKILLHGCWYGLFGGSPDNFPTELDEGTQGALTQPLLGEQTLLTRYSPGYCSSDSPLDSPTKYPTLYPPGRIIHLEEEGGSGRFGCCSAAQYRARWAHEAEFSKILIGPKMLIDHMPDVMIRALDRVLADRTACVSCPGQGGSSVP
smiles,measurement,setting,value
Cc1cc(Nc2ccc([N+](=O)[O-])cc2)c2ccccc2n1,IC50,[1],14.1 µM (active)
O=C(c1ccoc1)N1CCN(c2cc(-c3ccccc3)nc3cc(-c4cccc(Cl)c4)nn23)CC1,EC50,[2],1 µM (active)
same,EC50,[3],9.03 µM (active)
C[C@@H]1O[C@@H](Oc2c(-c3ccc(O)c(O)c3)oc3cc(O)cc(O)c3c2=O)[C@H](O)[C@H](O)[C@H]1O,AC50,[4],5.59 µM (active)
C[C@H]1CN([C@@H](C)CO)C(=O)c2cccc(NS(C)(=O)=O)c2O[C@H]1CN(C)Cc1ccc(Oc2ccccc2)cc1,AC50,[4],< 0.003 µM (active)
same,AC50,[5],0.003 µM (active)
O=C(N/N=C\c1c(O)ccc2ccccc12)c1cncc(Br)c1,EC50,[6],8.52 µM (inconclusive)
same,EC50,[7],> 300 µM (not active)
same,EC50,[8],1.4 µM (active)
same,EC50,[9],10.3 µM (active)
same,EC50,[10],0.342 µM (active)
same,EC50,[11],0.792 µM (active)
same,EC50,[12],86.8 µM (active)
same,EC50,[13],7.07 µM (active)
same,EC50,[14],3.59 µM (active)
same,IC50,[15],> 80 µM (inactive)
same,AC50,[16],4.06 µM (active)
same,EC50,[17],> 54.7 µM (inactive)
same,EC50,[18],> 54.7 µM (inactive)
same,IC50,[19],> 89.3 µM (inactive)
same,EC50,[20],12.4 µM (inactive)
COc1ccc(NC(=O)CCn2c(=S)[nH]c3ccccc3c2=O)cc1Cl,IC50,[21],26.3 µM (active)
same,IC50,[22],4.32 µM (active)
same,IC50,[23],> 100 µM (inactive)
same,IC50,[24],68.3 µM (inactive)
same,IC50,[25],12 µM (active)
O=C(Nc1cccc2[nH]ncc12)c1ccc(F)cc1,AC50,[26],14.1 µM (inconclusive)
same,AC50,[27],52.8 µM (active)
same,IC50,[28],> 79 µM (inactive)
same,IC50,[29],13.8 µM (inactive)
CCCCOCC1CO1 (configuration not stated),AC50,[30],56.2 µM (inconclusive)
CCSc1ccc2c(c1)N(CCCN1CCN(C)CC1)c1ccccc1S2,CC50,[31],16.3 µM (active)
same,IC50,[32],> 20 µM (inactive)
same,AC50,[33],1.09 µM (active)
same,IC50,[34],29.9 µM (inactive)
same,AC50,[35],14.9 µM (active)
O=C(N1CCCCC1Cc1ccccc1)n1cc(-c2ccc(-c3ccccc3C(F)(F)F)cc2)nn1 (configuration not stated),IC50,[36],0.058 µM (active)
